Measured values taken from US9969679B2, “Anti-proliferative compounds and uses thereof” (Dana-Farber Cancer Institute, Inc., priority 2012, dated 2018).

Experiments:
[1] = test system: EGFR; assay: Immunoblot of whole cell lysates for EGFR; assay type: cell-based, human; details: for EGFR expression, dose-dependent: 24 hr
Description: (§1) MCF7 cells were obtained and cultured (in the presence of compound III-B for 48 hr) in a similar manner as in Example 6. The cultured MCF7 cells were harvested, washed, and lysed using a lysis buffer (50 mM Tris-HCl (pH 7.4), 150 mM NaCl, 1% NP-40, 5 mM EDTA, 5 mM NaF, 1 mM Na3VO4, 1 mM PMSF, 5 μg/ml leupeptine, and 5 μg/ml aprotinin). […] The antibodies used were polyclonal anti-acetylated lysine (Ac—K; Cell Signaling Technology, Danvers, Mass.) and antibodies directed against EGFR, HER2, ER, and acetylated-α-tubulin (Ac-α-tubulin). […] In contrast, the expression of Ac—K in MCF7 cells was not affected by compound III-B (FIG. 12B).
(§2) MCF7 and T47D cells were obtained and cultured (in the presence of compound III-D (0, 0.5, 1, or 2 μM), for 24 hr), using methods similar to the ones described in Example 6. The whole cell lysates were immunoblotted with antibodies against EGFR, HER2, ER, and α-tubulin using methods similar to the ones described in Example 12. […] In contrast, the expression of α-tubulin in MCF7 or T47D cells was not affected by compound III-D (FIG. 13B).
(§3) MCF7 cells were obtained and cultured (in the presence of 2 μM of compound III-D, for 0, 12, 24, or 48 hr) using methods similar to the ones described in Example 6. The whole cell lysates were immunoblotted with antibodies against EGFR, HER2, ER, and α-tubulin using methods similar to the ones described in Example 12. […] In contrast, the expression of α-tubulin in MCF7 cells was not affected by compound III-D.

[2] = test system: T cells cocultured with MDSCs from peripheral blood of MM patients; assay: MDSC-mediated T cell suppression, 3H-Thymidin incorporation assay; assay type: cell-based, human; details: 1 μM, 5 days coculture, T:MDSCs 4:1, antiCD3/CD28 Abs and rhIL-2
Description: CD11b^+CD14^−HLA-DR^−/lowCD33^+ MDSCs and CD3T cells were isolated from peripheral blood of MM patients. The cells were stimulated with antiCD3/CD28 Abs and 2 ng/ml rhIL-2 and cocultured (ratio of T:MDSCs was 4:1) for 5 days in the absence or presence (1 μM) of compound III-D. The cell proliferation was measured by ^3H-Thymidin incorporation assay.

[3] = test system: pY705 STAT3; assay: Intracellular flow cytometry of STAT3 phosphorylation in MDSCs; assay type: cell-based, human; details: 1 μM overnight, MM-PBMC, PHA 2 ng/ml 10 min
Description: (§4) STAT-mediated signaling plays an important role in MDSC activation and function.
(§5) MM-PBMCs were cultured overnight with (1 μM) or without compound III-D. Cells were induced with phytohemagglutinin (PHA, 2 ng/ml) for 10 min. Intracellular expression of pY701 STAT1, pY705 STAT3, pY694 STAT5, STAT1, STAT3, and STAT5 in MDSCs (CD11b^+CD14^−HLA-DR^−/lowCD33^+CD15^+), was determined by flow cytometry analysis.

[4] = test system: α-tubulin; assay: Immunoblot of whole cell lysates for α-tubulin; assay type: cell-based, human
Description: as §1, §2, §3

[5] = test system: pY694 STAT5; assay: Intracellular flow cytometry of STAT5 phosphorylation in MDSCs; assay type: cell-based, human; details: 1 μM overnight, MM-PBMC, PHA 2 ng/ml 10 min
Description: as §4, §5

[6] = test system: ER; assay: Immunoblot of whole cell lysates for ER; assay type: cell-based, human; details: for ER expression, dose-dependent: 24 hr
Description: as §1, §2, §3

[7] = test system: pY701 STAT1; assay: Intracellular flow cytometry of STAT1 phosphorylation in MDSCs; assay type: cell-based, human; details: 1 μM overnight, MM-PBMC, PHA 2 ng/ml 10 min
Description: as §4, §5

[8] = test system: MCF7 human breast cancer cell lines; assay: MCF7 cell growth, MTT dye absorbance; assay type: cell-based; details: for MCF7 cell growth: 72 hr
Description: (§6) MCF7 human breast cancer cell lines were obtained from the American Type Culture Collection (Manassas, Va.). The cells were cultured in DMEM (Mediatech Inc., Manassas, Va.) or RPMI1640 (Mediatech Inc., Manassas, Va.) supplemented with FBS (10%), penicillin, streptomycin, and glutamine (Invitrogen, Auckland, New Zealand). […] The MCF7 cells were harvested using 0.05% trypsin-EDTA (Invitrogen) and distributed into 96-well plates (10,000-20,000 cells/well) 24 hr prior to the treatment. All experiments were performed three times in quadruplicate.

[9] = test system: HER2; assay: Immunoblot of whole cell lysates for HER2; assay type: cell-based, human; details: for HER2 expression, dose-dependent: 24 hr
Description: as §1, §2, §3

[10] = test system: MCF7 cells; assay: Bortezomib and III-D combination cytotoxicity in MCF7 cells, MTT, isobologram analysis; assay type: cell-based, human; details: 48 hr; for Combination indicia (CI): MCF7 cells
Description: as §6
MCF7 cells were obtained, cultured (in the presence of bortezomib (0, 10, 20, or 40 nM) and III-D (0, 0.3, 1, or 3 μM), for 48 hr), and assayed using methods similar to the ones described in Example 6. The statistical significance of the differences observed between the control cultures and the cultures treated with bortezomib and compound III-D was determined using the Wilcoxon signed-ranks test. The minimal level of significance was p<0.05. The interaction between compound III-D and bortezomib was analyzed by isobologram analysis using the CalcuSyn software program (Biosoft, Ferguson, Mo.) to determine whether the combination was additive or synergistic. A combination index (CI)<1.0 indicates a synergistic cell growth inhibitory effect.

[11] = test system: CD11b+CD14−HLA-DR−/lowCD33+CD15+ MDSCs in MM-PBMC; assay: MDSC number and maturation in MM-PBMC, flow cytometry; assay type: cell-based, human; details: 1 μM, cultured overnight; for number of CD11b+CD14−HLA-DR−/lowCD33+CD15+ MDSCs in MM-PBMC: vs untreated MM-PBMC
Description: In order to determine whether myeloid derived suppressor cells (MDSCs) are present in subjects with multiple myeloma (MM), fresh or cultured peripheral blood mononuclear cells (PBMCs) and bone marrow mononuclear cells (BMMCs) from human subjects with MM have been analyzed using standard cell-surface multicolor flow cytometry staining methods (see, e.g., Herzenberg et al., Clin. Chem. (2002) 48:1819-27; and Perez et al., Nat. Biotechnol. (2002) 20:155-62).
MM-PBMCs were cultured overnight with (1 μM) or without compound III-D. MDSCs (CD11b^+CD14^−HLA-DR^−/lowCD33^+CD15^+) were determined by flow cytometry analysis. Gates 110 and 130 indicate the MDSC population. Compound III-D induces maturation of MDSCs (CD11b^+CD14^−HLA-DR^−/lowCD33^+CD15^+) into CD14^+ and/or CD14^−[…] (FIG. 3G) in MM peripheral blood compared to untreated MM-PBMC (FIG. 3C). MM-PBMCs were cultured overnight with (1 μM) or without compound III-D. CD14 and/or HLA-DR expressing MDSCs (CD11b^+CD14^−HLA-DR^−/lowCD33^+CD15^+) were determined by flow cytometry analysis. Gates 100 and 120 indicate CD14^+ mature MDSC population. Gating strategy of MDSCs has been indicated as CD11b^+ cells (FIGS. 3A-3B and 3E-3F), CD11b^+CD14^−HLA-DR^−/lowCD14^− cells (FIGS. 3C and 3G) and MDSCs with a phenotype of CD11b^+/HLA-DR^−/lowCD14^−/CD33^+CD15^+ cells (FIGS. 3D and 3H).

[12] = test system: T47D human breast cancer cells; assay: T47D cell growth, MTT dye absorbance; assay type: cell-based; details: for T47D cell growth: 72 hr
Description: as §6
T47D human breast cancer cells were obtained, cultured (in the presence of compounds III-A, III-B, III-C, or III-E), and assayed in a similar manner as in Example 6.

[13] = test system: LnCaP human prostate cancer cells; assay: LnCaP cell growth, MTT dye absorbance; assay type: cell-based; details: 72 hr
Description: [The procedure below names another cell line; the source lists this cell line under the same test.] as §6

[14] = test system: acetylated lysine (Ac—K); assay: Immunoblot for acetylated lysine (histone acetylation); assay type: cell-based, human; details: MCF7 cells, 48 hr
Description: as §1

[15] = MCF7 cells, 2 μM, 0, 12, 24, or 48 hr

SMILES: CN1CCC(C(=O)N/N=C/c2ccc(N(c3ccccc3)c3ccccc3)cc2)CC1 [Compound III-D]
- EGFR expression, dose-dependent ([1]; MCF7 cells, 0, 0.5, 1, or 2 μM): down-regulates
- EGFR expression, time-dependent [1, 15]: down-regulates
- EGFR expression, dose-dependent ([1]; T47D cells, 0, 0.5, 1, or 2 μM): down-regulates
- MDSC-mediated T cell suppression (T cell proliferation) [2]: Reversed
- phosphorylation of STAT3 (pY705) in MDSCs [3]: significantly reduced
- expression of α-tubulin ([4]; MCF7 cells, 0, 0.5, 1, or 2 μM, 24 hr): not affected
- expression of α-tubulin [4, 15]: not affected
- expression of α-tubulin ([4]; T47D cells, 0, 0.5, 1, or 2 μM, 24 hr): not affected
- phosphorylation of STAT5 (pY694) in MDSCs [5]: significantly reduced
- ER expression, dose-dependent ([6]; MCF7 cells, 0, 0.5, 1, or 2 μM): down-regulates
- ER expression, time-dependent [6, 15]: down-regulates
- ER expression, dose-dependent ([6]; T47D cells, 0, 0.5, 1, or 2 μM): down-regulates
- phosphorylation of STAT1 (pY701) in MDSCs [7]: significantly reduced
- MCF7 cell growth [8]: inhibit
- potency in inhibiting MCF7 cells compared with tamoxifen ([8]; at least at 3-10 μM of compound and tamoxifen): more potent than tamoxifen
- HER2 expression, dose-dependent ([9]; MCF7 cells, 0, 0.5, 1, or 2 μM): down-regulates
- HER2 expression, time-dependent [9, 15]: down-regulates
- HER2 expression, dose-dependent ([9]; T47D cells, 0, 0.5, 1, or 2 μM): down-regulates
- Combination indicia (CI) ([10]; III-D 0.3 μM + bortezomib 10 nM): 1.58
- Combination indicia (CI) ([10]; III-D 0.3 μM + bortezomib 20 nM): 1.29
- Combination indicia (CI) ([10]; III-D 0.3 μM + bortezomib 40 nM): 0.83
- Combination indicia (CI) ([10]; III-D 1 μM + bortezomib 10 nM): 0.66
- Combination indicia (CI) ([10]; III-D 1 μM + bortezomib 20 nM): 0.53
- Combination indicia (CI) ([10]; III-D 1 μM + bortezomib 40 nM): 0.53
- Combination indicia (CI) ([10]; III-D 3 μM + bortezomib 10 nM): 1.22
- Combination indicia (CI) ([10]; III-D 3 μM + bortezomib 20 nM): 1.03
- Combination indicia (CI) ([10]; III-D 3 μM + bortezomib 40 nM): 0.98
- enhancement of bortezomib-induced MCF7 cytotoxicity (interaction) ([10]; combination with bortezomib, at least at certain concentrations, CI<1 = synergistic): synergistically
- maturation of MDSCs into CD14+ monocytes and/or CD14+HLA-DR+ antigen presenting cells ([11]; MM-PBMC): induced maturation
- number of CD11b+CD14−HLA-DR−/lowCD33+CD15+ MDSCs in MM-PBMC [11]: significant decrease
- potency in inhibiting T47D cells compared with tamoxifen [12]: more potent than tamoxifen

SMILES: O=Cc1ccc(N(c2ccccc2)c2ccccc2)cc1 [III-A]
- MCF7 cell growth [8]: inhibit
- T47D cell growth [12]: inhibit
- LnCaP cell growth [13]: inhibit

SMILES: CC(=O)N/N=C/c1ccc(N(c2ccccc2)c2ccccc2)cc1 [Compound III-B]
- EGFR expression ([1]; MCF7 cells, 48 hr): down-regulates
- expression of Ac—K [14]: not affected
- ER expression ([6]; MCF7 cells, 48 hr): down-regulates
- MCF7 cell growth [8]: inhibit
- HER2 expression ([9]; MCF7 cells, 48 hr): down-regulates
- T47D cell growth [12]: inhibit
- LnCaP cell growth [13]: inhibit

SMILES: O=C1CN(/N=C/c2ccc(N(c3ccccc3)c3ccccc3)cc2)C(=O)N1 [Compound III-F]
- MDSC-mediated T cell suppression (T cell proliferation) [2]: reverses
- phosphorylation of STAT3 (pY705) in MDSCs [3]: decreases
- phosphorylation of STAT5 (pY694) in MDSCs [5]: decreases
- phosphorylation of STAT1 (pY701) in MDSCs [7]: decreases
- MCF7 cell growth [8]: inhibit
- number of CD11b+CD14−HLA-DR−/lowCD33+CD15+ MDSCs in MM-PBMC [11]: decreased

SMILES: O=C(N/N=C/c1ccc(N(c2ccccc2)c2ccccc2)cc1)c1ccccc1 [Compound III-C]
- MCF7 cell growth [8]: inhibit
- T47D cell growth [12]: inhibit
- LnCaP cell growth [13]: inhibit

SMILES: O=C(NN=Cc1ccccc1)c1ccccc1 [Compound IV-B]
- MCF7 cell growth [8]: do not

SMILES: CC(C)C[C@H](NC(=O)[C@H](Cc1ccccc1)NC(=O)c1cnccn1)B(O)O [bortezomib, reference compound]
- response of MCF7 cells to bortezomib as single agent ([10]; bortezomib 0, 10, 20, or 40 nM): resistant

SMILES: CC(=O)NN=Cc1ccc(N(C)C)cc1 [Compound IV-D]
- MCF7 cell growth [8]: does not

SMILES: O/N=C/c1ccc(N(c2ccccc2)c2ccccc2)cc1 [Compound III-E]
- MCF7 cell growth [8]: inhibit
- T47D cell growth [12]: inhibit
- LnCaP cell growth [13]: inhibit

SMILES: CC(=O)NN=Cc1ccccc1 [Compound IV-C]
- MCF7 cell growth [8]: do not
